The source of these data is patent US20140336187A1, “METHODS FOR TREATING LEISHMANIASIS” (HOWARD UNIVERSITY, priority 2011, published 2014).

“And” between values parts separate entries of the source, which are not always exact repeats. Equal values may be shown once. Read-outs that look alike come from different tables or passages of the source.

For one series, the system named is L. donovani amastigotes. The series is described as follows: Antileishmanial activity on L. donovani amastigotes (resazurin assay). The settings on record: for IC50: read-out: IC50 (μM) Amastigotes; for SI Values Amastigotes: SI = IC50 (mouse fibroblast) ÷ IC50 (amastigotes). The series is classed as cell-based, Leishmania donovani. The protocol:
Amastigotes were grown in MAA/20 medium (Amastigote medium consisted of: M199 medium supplemented with 0.5% Tryptone broth, 0.01 mM bathocuproinedisulfonic acid, 0.108 mM L-Cysteine, 15 mM D-glucose, 0.685 mM L-glutamine, and 0.025 mM Hemin and 20% fetal calf serum (FCS) at a pH of 5.5).
Amastigotes were plated at a concentration of 2×10^5 cells/[…] 24 hrs before treatment with various compounds. Amastigotes were treated with dilutions of compounds in 96-well microtitre plates. Dilutions of compounds ranging from 0.03 μM to 44 μM were prepared and added to amastigotes. Amastigotes were exposed to compounds for 48 hrs and were incubated at 37° C. […] After the incubation period, 20 μl Alamar Blue (12.5 mg resazurin dissolved in 100 ml distilled water) (Mikes and Steverding, 2000) were added to each well and plates were incubated for another 2 hrs. […] Decrease of fluorescence (inhibition) was expressed as percentage of the fluorescence of control cultures and was plotted against the concentrations of compounds. The IC50 values were calculated from the sigmoidal inhibition curves. Amphotericin B was used as a reference drug.
For orientation: The colour change of resazurin is a common sign of viable cells or microbes.

The subject of series [1] is NIH 3T3 BALB/c mouse fibroblast cell line. The series is described as follows: Cytotoxic assessment on NIH 3T3 BALB/c mouse fibroblasts (resazurin assay). The settings on record: for IC50: read-out: IC50 (μM) Fibroblasts, NIH 3T3 BALB/c mouse fibroblasts, 48 hrs, resazurin assay, means ± S.E.; for cytotoxicity compared with Amphotericin B: Balb/C 3T3 mouse fibroblast cell line, FIG. 2.
Method: Fibroblasts cells (4×10^4 cells/nil and adding 100 μl per well) were incubated with different concentrations of the naphthoquinone compounds (FIGS. 1) (3, 7, 13, 29, 33, and 44 μM) for 48 hrs after which viability of live fibroblast cells was determined by the Resazurin Method using a microplate reader (Bio-Tek Instruments EL311).
NIH 3T3 mouse fibroblasts were maintained in Roswell Park Memorial Institute (RPMI) medium supplemented with 10% Fetal calf serum, 50 units/ml penicillin, 50 units/ml streptomycin B in a humidified incubator at 37° C. in the presence of 5% CO2 (Scala et al., 2010).
Assays were performed to assess the cytotoxicity of these compounds in 96-well microtiter plates, with each well containing 100 μl of RPMI medium supplemented with 10% bovine calf scrum with 50 U/ml Pen-Strep. The cells were plated at a concentration of 4×10^3 cells/well (4×10^4 cells/ml). Fibroblast cells were then incubated with compounds for 48 hrs and inspected under an inverted microscope to assure growth of the controls and sterile conditions. 10 μl of resazurin solution (12.5 mg resazurin dissolved in 100 nil distilled water) were added to each well and the plates were incubated for another 2 hrs. The plates were read with a microplate reader at 570 nm. Experiments were done at least 3 times in triplicates (Scala et al., 2010).
Cell viability was determined using Resazurin Assay. The IC50 values were calculated and expressed as means±S.E (standard error).

A further series deals with L. donovani. The series is described as follows: In vivo visceral leishmaniasis BALB/c mouse model: liver and spleen parasite burden (LDUs). Also noted: species or system BALB/c mice. The conditions noted are these: for LDUs (Liver): subcutaneous, 4 days from day 7; for LDUs (Liver) / LDUs (Spleen): 14 days post infection, n=2; for Parasite Suppression (%)--Liver (reduction in parasite burden) / Parasite Suppression (%)--Spleen (reduction in parasite burden) / increase in parasite burden (spleen): compared to untreated controls. The protocol:
Balb/c mice 10-11 weeks old were infected with L. donovani inoculated subcutaneously (SC) at the base of the tail (maximum 0.2 ml) with 1×10^6 freshly harvested promastigotes. These represented a VL model which has been described previously (Yardley and Croft, 1999). After infection, mice were marked for individual identification and randomly allocated into groups of two. Seven days after infection, a mouse was sacrificed, and parasitic burden assessed based on microscopic enumeration of amastigotes (Leishman donovan bodies) against host cell nuclei on liver and spleen impression smears (Stauber et al., 1958). Blood was collected through cardiac puncture for use in all serum based assays.
Dosing began on the seventh day post-infection for 4 continuous days. […] Dosing was administered subcutaneously at the base of the tail.
It includes the different groups of mice and the concentrations of compounds used for the treatment of infections. A Representation of infections and treatments of BALB/c Mice is in Table 2. All mice were infected with 10^6 log phase promastigotes in PBS. In each group with different concentrations, there were two mice (n=2). […] The positive controls that were infected but were not treated with any drug except PBS, and the negative controls that were not infected with the parasites, but injected with only PBS.
The efficacy of compounds was assessed by microscopically determining the reduction in amastigotes burden Leishman donovan bodies (LDBs) within the liver and spleen. Impression smears were taken 14 days post infection (7 days after the start of treatment). Mice liver and spleen imprints were made by touching a freshly cut surface of the mice liver and spleen many times with a Poly-L-Lysine coated slide. The slides were air dried, fixed in “Diff Quick” fixative for 30 seconds, drained, stained with “Quick Diff” solution II for 30 seconds, drained, and then finally counterstaining with “Diff Quick” solution I for 30 seconds and then drained. Slides were rinsed in tap water to remove excess stain and rapidly dehydrated in absolute alcohol. Slides were examined by light microscopy, using ×1000 oil immersion. LDBs were determined by dividing the number of LDBs/number of cells nuclei x weight of organ in milligrams. This gave the number of “Leishman donovan units” (LDUs).
The purpose of the test was to evaluate splenic and liver parasite burden after treatment with selected compounds. This was done by making imprints and calculating the number of Leishman Donovan Units (LDUs) in cells. LDUs are calculated by counting the number of parasites per cell nuclei (number of amastigotes in cells÷number of cells) multiplied by the weight of the organ in milligrams. […] Effectiveness of compounds in the treatment of VL is expressed as LDU numbers and as percent increases or percent decrease in LDUs. Percent increase in LDU means that the number of parasites increased compared to the untreated controls and percent decrease means that the number of parasites decreased compared to the untreated controls.

Series [2] relates to L. donovani promastigotes. Briefly: Antileishmanial activity on L. donovani promastigotes (resazurin cell viability assay). The series is classed as cell-based, Leishmania donovani. The settings on record: for SI Values Promastigotes: SI = IC50 (mouse fibroblast) ÷ IC50 (promastigotes); for IC50: resazurin assay, 0.03 to 44 μM, means ± S.E. of three experiments. The protocol:
Approximately 5×10^5 promastigotes/ml of L. donovani Khartum strain were inoculated into Yeager's Liver infusion tryptose (YLIT) medium or Brain Heart Infusion (BHI) broth (Difco), supplemented with glucose (2.5 mg/ml), 50 U/ml Pen-Strep and 0.005 mM Hemin at 25-26° C. and subcultured bi-weekly, Mikus et al., Parasitol Int., 48(3):265-9 (2000) (Mikus and Steverding, 2000).
The Leishmanicidal properties of fifteen naphthoquinone compounds (FIG. 1) on L. donovani promastigotes proliferation were assessed by the resazurin cell viability assay. Promastigotes from axenic culture were harvested during the exponential phase of growth (at least 5-day old culture), incubated at a concentration of 2×10^5 cells/200 μl with and without dilutions of compounds in 96-well microtitre plates. Dilutions of compounds covering 0.03 μM to 44 μM were prepared. […] 20 μl Alamar Blue (12.5 mg resazurin dissolved in 100 ml distilled water (Sigma #R7017)) (Mikes and Steverding, 2000) were added to each well and plates were incubated for another 2 hrs. […] Decrease in fluorescence (inhibition), were expressed as percentage of the fluorescence of control cultures and were plotted against the concentrations of compounds. The IC50 values were calculated from the sigmoidal inhibition curves.

Setting [3] is: 20 mg/kg total dose, listed as Amphotericin B.
The mark [4] stands for this setting: Leishmania donovani, read-out: IC50 (μM) Promastigotes, L. donovani promastigotes.

Turning to `C[C@@H]1[C@H](O)[C@@H](C)/C=C/C=C/C=C/C=C/C=C/C=C/C=C/[C@H](O[C@@H]2O[C@H](C)[C@@H](O)[C@H](N)[C@@H]2O)C[C@@H]2O[C@](O)(C[C@@H](O)C[C@@H](O)[C@H](O)CC[C@@H](O)C[C@@H](O)CC(=O)O[C@H]1C)C[C@H](O)[C@H]2C(=O)O` [Am. B., Amphotericin B, reference compound], the half-maximal inhibitory concentration (IC50) (commonly the midpoint of a concentration-inhibition curve) with L. donovani amastigotes (L. donovani amastigotes, 48 hrs exposure, resazurin assay, means ± S.E.) turned out to be 22.3 µM; in series [1], 1.18 µM. Besides, the “LDUs (Liver)” value with L. donovani (20 mg/kg total dose) is given as 5681.0 ± 1868 LDUs; with L. donovani (setting [3]), 5823.8 LDUs. Moreover, the “LDUs (Spleen)” value in the series on L. donovani (20 mg/kg total dose) was determined as 402.3 ± 30 LDUs; with L. donovani (setting [3]), 402.0±30 LDUs. In the series on L. donovani (20 mg/kg), the “Parasite Suppression (%)--Liver (reduction in parasite burden)” value is listed as 33.47%. Besides, the “Parasite Suppression (%)--Spleen (reduction in parasite burden)” value with L. donovani (20 mg/kg) is 35.74%; in the series on L. donovani (20 mg/kg, listed as Amphotericin B) it was 33.0%.
`CCCC(=O)N(C(=O)CCC)C1=C(Cl)C(=O)c2ccccc2C1=O` [IMDNQ15]: in series [2], the “SI Values Promastigotes” value is 61250.00±438 and 61250.00. Besides, the IC50 in the series with L. donovani amastigotes (Leishmania donovani, 48 h) was found to be 18.9 µM; in series [1], 2.94 µM. In the series with L. donovani amastigotes, the “SI Values Amastigotes” value is 0.16±0.09 and 0.16. The “LDUs (Liver)” value is 2267.5±191 LDUs with L. donovani (5 mg/kg total dose); 2598.5±89 LDUs and 2598.5 ± 889 LDUs in the series with L. donovani (20 mg/kg total dose); 4618.0 ± 1785 LDUs with L. donovani (50 mg/kg total dose). The “LDUs (Spleen)” value stood at 315.0±129 LDUs with L. donovani (5 mg/kg total dose), 363.3±210 LDUs with L. donovani (20 mg/kg total dose) and 213.0±115 LDUs in the series on L. donovani (50 mg/kg total dose). Also, the “Parasite Suppression (%)--Liver (reduction in parasite burden)” value in the series with L. donovani (5 mg/kg) was 73.44%; in the series on L. donovani (20 mg/kg), 69.57%; in the series with L. donovani (50 mg/kg), 45.92%. Moreover, the “Parasite Suppression (%)--Spleen (reduction in parasite burden)” value with L. donovani (5 mg/kg) stood at 49.68%; in the series with L. donovani (20 mg/kg), 41.97%; with L. donovani (50 mg/kg), 65.97%.
Take `NC1=C(Br)C(=O)c2ccccc2C1=O` [IMD8, 2-Amino-3-bromo-1,4-naphthoquinone]: the IC50 in series [2] (setting [4]) was determined as 4.3 µM; in series [2] (read-out: IC50 (μM) Promastigotes, L. donovani promastigotes), 4.4 ± 0.4 µM; with L. donovani amastigotes (Leishmania donovani, 48 h) it was 2.07 µM. Moreover, the “SI Values Promastigotes” value in series [2] is 3301.71±321.1 and 3301.71. Further, in the series with L. donovani amastigotes, the “SI Values Amastigotes” value was 6858.62±3975.5 and 6858.62. Besides, the “cytotoxicity compared with Amphotericin B” value in series [1] is given as “far less cytotoxic than Amphotericin B”. Moreover, the “LDUs (Liver)” value in the series with L. donovani (5 mg/kg total dose) stood at 4752.5±293 LDUs; in the series on L. donovani (20 mg/kg total dose), 3099.9±2197 LDUs; with L. donovani (50 mg/kg total dose), 1869.0±420 LDUs. Further, the “LDUs (Spleen)” value was 585.3±222 LDUs with L. donovani (5 mg/kg total dose), 297.8±9.5 LDUs in the series with L. donovani (20 mg/kg total dose) and 391.5±96 LDUs with L. donovani (50 mg/kg total dose). Moreover, the “Parasite Suppression (%)--Liver (reduction in parasite burden)” value is 56.66% and 55.66% with L. donovani (5 mg/kg); 44.34% in the series with L. donovani (20 mg/kg); 81.89% in the series on L. donovani (50 mg/kg). Also, the “Parasite Suppression (%)--Spleen (reduction in parasite burden)” value worked out at 6.51% in the series on L. donovani (5 mg/kg) and 52.44% in the series with L. donovani (20 mg/kg).
Regarding `O=C1C(Cl)=C(N(C(=O)c2cccc(Cl)c2)C(=O)c2cccc(Cl)c2)C(=O)c2ccccc21` [IMDNQ4, 3-Chloro-N-(3-chlorobenzoyl)-N-(3-chloro-1,4-dioxo-1,4-dihydronaphthalen-2-yl)-benzamide], the half-maximal inhibitory concentration (IC50) stood at 6.81 µM in series [2] (setting [4]); 1.19 µM with L. donovani amastigotes (Leishmania donovani, 48 h); 168 µM in series [1]. Besides, in series [2], the “SI Values Promastigotes” value was 24.65±12.51 and 24.65. For the same compound, in the series on L. donovani amastigotes, the “SI Values Amastigotes” value is 141.26±56.8 and 141.26. The “cytotoxicity compared with Amphotericin B” value in series [1] is “far less cytotoxic than Amphotericin B”. Further, the “LDUs (Liver)” value with L. donovani (5 mg/kg total dose) is reported as 5823.8±3378 LDUs; in the series on L. donovani (20 mg/kg total dose), 4266.0±6033 LDUs; in the series with L. donovani (50 mg/kg total dose), 1003.8±1420 LDUs. Further, the “LDUs (Spleen)” value in the series on L. donovani (5 mg/kg total dose) was determined as 433.3±188 LDUs; in the series on L. donovani (20 mg/kg total dose) it was 770.0±608 LDUs; with L. donovani (50 mg/kg total dose) it was 780.3±96 LDUs. The “Parasite Suppression (%)--Liver (reduction in parasite burden)” value in the series on L. donovani (5 mg/kg) is listed as 31.79%; in the series on L. donovani (20 mg/kg), 50.04%; in the series with L. donovani (50 mg/kg), 88.24%. For the same compound, the “Parasite Suppression (%)--Spleen (reduction in parasite burden)” value in the series with L. donovani (5 mg/kg) was 30.79%; in the series with L. donovani (20 mg/kg), 0%; with L. donovani (50 mg/kg), 0%. Further, the “increase in parasite burden (spleen)” value in the series on L. donovani (20 mg/kg) is 18.7%; in the series on L. donovani (50 mg/kg), 19.8%.
